# From patent publication US8551984B2, “Aminopyrimidines as SYK inhibitors” (Merck Sharp & Dohme Corp., priority 2009, dated 2013)
# Target: rhSYK (Homo sapiens, UniProt P43405)
# Conditions: read-out: rhSYK Activity; class symbol; where two forms are listed, one symbol per form
row,IC50,Compound
1,< 100 nM,Cc1cc(Nc2nccc(C(F)(F)F)n2)cc(-c2cnc(C(C)(O)CO)s2)c1 (centres unmarked) [Ex 5-5]
2,< 100 nM,Cc1cc(Nc2nccc(C(F)(F)F)n2)cc(-c2cnc(C(C)(O)CO)s2)c1 (centres unmarked) [Ex 5-6]
3,< 100 nM,Cc1cc(Nc2nccc(C(F)(F)F)n2)cc(-c2cnc(C(C)(O)CO)s2)c1 (centres unmarked) [Ex 5-7]
4,< 100 nM,Cc1cc(Nc2ncc(F)c(C)n2)cc(-c2cnc(C(C)(O)CO)s2)c1 (centres unmarked) [Ex 5-8]
5,< 100 nM,Cc1cc(Nc2ncc(F)c(C)n2)cc(-c2cnc(C(C)(O)CO)s2)c1 (centres unmarked) [Ex 5-9]
6,< 100 nM,Cc1cc(Nc2ncc(F)c(C)n2)cc(-c2cnc(C(C)(O)CO)s2)c1 (centres unmarked) [Ex 5-10]
7,100 to 1000 nM,Cc1cc(Nc2ncc(Cl)cn2)cc(-c2cnc(C(C)(O)CO)s2)c1 (centres unmarked) [Ex 5-11]
8,< 100 nM,Cc1cc(Nc2ncc(Cl)cn2)cc(-c2cnc(C(C)(O)CO)s2)c1 (centres unmarked) [Ex 5-12]
9,100 to 1000 nM,Cc1cc(Nc2ncc(Cl)cn2)cc(-c2cnc(C(C)(O)CO)s2)c1 (centres unmarked) [Ex 5-13]
10,< 100 nM,Cc1cc(Nc2ncc(F)c(C3CC3)n2)cc(-c2cnc(C(C)(O)CO)s2)c1 (centres unmarked) [Ex 5-16]
11,< 100 nM,Cc1cc(Nc2ncc(F)c(C3CC3)n2)cc(-c2cnc(C(C)(O)CO)s2)c1 (centres unmarked) [Ex 5-17]
12,< 100 nM,Cc1cc(Nc2ncc(F)c(C3CC3)n2)cc(-c2cnc(C(C)(O)CO)s2)c1 (centres unmarked) [Ex 5-18]
13,< 100 nM,COc1ccc(Nc2nccc(C(F)(F)F)n2)cc1-c1cnc(C2(O)CCC2)s1 [Example 1-1]
14,100 to 1000 nM,OC1(c2ncc(-c3cc(Nc4nccc(C(F)(F)F)n4)ccc3Cl)s2)CCC1 [Example 1-2]
15,100 to 1000 nM,OC1(c2ncc(-c3cc(Nc4nccc(C(F)(F)F)n4)ccc3OC(F)(F)F)s2)CCC1 [Example 1-3]
16,100 to 1000 nM,OC1(c2ncc(-c3cc(Nc4nccc(C(F)(F)F)n4)ccc3OCc3ccccc3)s2)CCC1 [Example 1-4]
17,< 100 nM,Oc1ccc(Nc2nccc(C(F)(F)F)n2)cc1-c1cnc(C2(O)CCC2)s1 [Example 1-5]
18,< 100 nM,Cc1ccc(Nc2nccc(C(F)(F)F)n2)cc1-c1cnc(C2(O)CCC2)s1 [Example 1-6]
19,< 100 nM,CC(C)(O)c1ncc(-c2cccc(Nc3nccc(C(F)(F)F)n3)c2)s1 [Example 4A-1]
20,< 100 nM,CC(O)(c1ncc(-c2cccc(Nc3nccc(C(F)(F)F)n3)c2)s1)C(F)(F)F (centres unmarked) [Example 4A-2]

row,IC50,Compound
1,100 to 1000 nM,CC(C)(C)C(C)(O)c1ncc(-c2cccc(Nc3nccc(C(F)(F)F)n3)c2)s1 (centres unmarked) [Example 4A-6]
2,100 to 1000 nM,OC(c1ccccc1)(c1ncc(-c2cccc(Nc3nccc(C(F)(F)F)n3)c2)s1)C(F)F (centres unmarked) [Example 4A-7]
3,100 to 1000 nM,CN(C)CC(C)(C)C(O)c1ncc(-c2cccc(Nc3nccc(C(F)(F)F)n3)c2)s1 (centres unmarked) [Example 4A-8]
4,< 100 nM,CCC(O)(c1ncc(-c2cccc(Nc3nccc(C(F)(F)F)n3)c2)s1)C(F)(F)F (centres unmarked) [Example 4A-9]
5,< 100 nM,CC(O)(c1ncc(-c2cccc(Nc3nccc(C(F)(F)F)n3)c2)s1)C(F)F (centres unmarked) [Example 4A-10]
6,1000 to 10000 nM,OC(c1ncc(-c2cccc(Nc3nccc(C(F)(F)F)n3)c2)s1)(C1CCCCC1)C(F)(F)F (centres unmarked) [Example 4A-11]
7,100 to 1000 nM,CC(O)(c1ccn(S(=O)(=O)c2ccccc2)c1)c1ncc(-c2cccc(Nc3nccc(C(F)(F)F)n3)c2)s1 (centres unmarked) [Example 4A-12]
8,100 to 1000 nM,OC(c1ccc(Br)cn1)(c1ncc(-c2cccc(Nc3nccc(C(F)(F)F)n3)c2)s1)C(F)F (centres unmarked) [Example 4A-13]
9,100 to 1000 nM,CN(C)CC(C)(O)c1ncc(-c2cccc(Nc3nccc(C(F)(F)F)n3)c2)s1 (centres unmarked) [Example 4A-14]
10,100 to 1000 nM,OC(c1ncc(-c2cccc(Nc3nccc(C(F)(F)F)n3)c2)s1)C1CCCC1 (centres unmarked) [Example 4A-15]
11,< 100 nM,OC(c1ccoc1)c1ncc(-c2cccc(Nc3nccc(C(F)(F)F)n3)c2)s1 (centres unmarked) [Example 4A-17]
12,100 to 1000 nM,OC(c1cccnc1)c1ncc(-c2cccc(Nc3nccc(C(F)(F)F)n3)c2)s1 (centres unmarked) [Example 4A-18]
13,100 to 1000 nM,CC(C)n1cc(C(O)c2ncc(-c3cccc(Nc4nccc(C(F)(F)F)n4)c3)s2)cn1 (centres unmarked) [Example 4A-20]
14,< 100 nM,CC(O)(c1cccnc1)c1ncc(-c2cccc(Nc3nccc(C(F)(F)F)n3)c2)s1 (centres unmarked) [Example 4A-21]
15,< 100 nM,CC(O)(c1cnccn1)c1ncc(-c2cccc(Nc3nccc(C(F)(F)F)n3)c2)s1 (centres unmarked) [Example 4A-22]
16,< 100 nM,CC(O)(c1ncc(-c2cccc(Nc3nccc(C(F)(F)F)n3)c2)s1)C1CCC1 (centres unmarked) [Example 4A-23]
17,100 to 1000 nM,CC(C)C(O)(c1ncc(-c2cccc(Nc3nccc(C(F)(F)F)n3)c2)s1)C(C)C [Example 4A-24]
18,100 to 1000 nM,CC(=O)OCCC(C)(O)c1ncc(-c2cccc(Nc3nccc(C(F)(F)F)n3)c2)s1 (centres unmarked) [Example 4A-25]
19,100 to 1000 nM,CCOC(=O)C1(C(C)(O)c2ncc(-c3cccc(Nc4nccc(C(F)(F)F)n4)c3)s2)CC1 (centres unmarked) [Example 4A-26]
20,100 to 1000 nM,OC(c1cccnc1)(c1nnco1)c1ncc(-c2cccc(Nc3nccc(C(F)(F)F)n3)c2)s1 (centres unmarked) [Example 4A-27]

row,IC50,Compound
1,100 to 1000 nM,CCC(=O)C(O)(CC)c1ncc(-c2cccc(Nc3nccc(C(F)(F)F)n3)c2)s1 (centres unmarked) [Example 4A-28]
2,100 to 1000 nM,CC(O)(c1ccc(S(C)(=O)=O)s1)c1ncc(-c2cccc(Nc3nccc(C(F)(F)F)n3)c2)s1 (centres unmarked) [Example 4A-29]
3,100 to 1000 nM,OC(c1ccccn1)(c1nccs1)c1ncc(-c2cccc(Nc3nccc(C(F)(F)F)n3)c2)s1 (centres unmarked) [Example 4A-30]
4,< 100 nM,COCC(C)(O)c1ncc(-c2cc(C)cc(Nc3nccc(C(F)(F)F)n3)c2)s1 (centres unmarked) [Example 4A-32]
5,< 100 nM,Cc1cc(Nc2nccc(C(F)(F)F)n2)cc(-c2cnc(C(C)(O)CF)s2)c1 (centres unmarked) [Example 4A-33]
6,< 100 nM,Cc1cc(Nc2nccc(C(F)(F)F)n2)cc(-c2cnc(C(O)(CF)CF)s2)c1 [Example 4A-34]
7,< 100 nM,Cc1cc(Nc2nccc(C(F)(F)F)n2)cc(-c2cnc(C(C)(O)c3ncnn3C)s2)c1 (centres unmarked) [Example 4A-35]
8,< 100 nM,Cc1cc(Nc2nccc(C(F)(F)F)n2)cc(-c2cnc(C(C)(O)c3noc(C)n3)s2)c1 (centres unmarked) [Example 4A-36]
9,< 100 nM,Cc1cc(Nc2nccc(C(F)(F)F)n2)cc(-c2cnc(C(O)(C3CC3)C3CC3)s2)c1 [Example 4A-37]
10,< 100 nM,Cc1cc(Nc2nccc(C(F)(F)F)n2)cc(-c2cnc(C(O)(CO)CO)s2)c1 [Example 4A-38]
11,< 100 nM,Cc1cc(Nc2nccc(C)n2)cc(-c2cnc(C(O)(CO)CO)s2)c1 [Example 4A-39]
12,< 100 nM,Cc1cc(Nc2nccc(C(F)(F)F)n2)cc(-c2cnc(C(O)CCC#N)s2)c1 (centres unmarked) [Example 4A-41]
13,< 100 nM,C=CCCC(O)c1ncc(-c2cc(C)cc(Nc3nccc(C(F)(F)F)n3)c2)s1 (centres unmarked) [Example 4A-42]
14,< 100 nM,C=CCCC(C)(O)c1ncc(-c2cc(C)cc(Nc3nccc(C(F)(F)F)n3)c2)s1 (centres unmarked) [Example 4A-43]
15,< 100 nM,Cc1cc(Nc2nccc(C(F)(F)F)n2)cc(-c2cnc(C(C)(O)CC(C)N)s2)c1 (centres unmarked) [Example 4A-45]
16,< 100 nM,Cc1cc(Nc2nccc(C(F)(F)F)n2)cc(-c2cnc(C(C)(O)CCCN)s2)c1 (centres unmarked) [Example 4A-46]
17,< 100 nM,Cc1cc(Nc2nccc(C(F)(F)F)n2)cc(-c2cnc(C(C)(O)CCCC(=O)O)s2)c1 (centres unmarked) [Example 4A-47]
18,< 100 nM,COC(=O)C(C)(C)C(C)(O)c1ncc(-c2cc(C)cc(Nc3nccc(C(F)(F)F)n3)c2)s1 (centres unmarked) [Example 4A-48]
19,100 to 1000 nM,Cc1cc(Nc2nccc(C(F)(F)F)n2)cc(-c2cnc(C(O)(c3ccccn3)C(C)C)s2)c1 (centres unmarked) [Example 4A-49]

row,Compound,IC50
1,CC(O)(c1ncc(-c2cccc(Nc3nccc(C(F)(F)F)n3)c2)s1)C(F)(F)C(F)(F)C(F)(F)F (centres unmarked) [Example 4A-31],1000 to 10000 nM

# Same assay, conditions: read-out: rhSYK activity; class symbol given
row,IC50,Compound
1,< 100 nM,"Cc1cc(Nc2nccc(C(F)(F)F)n2)cc(-c2cnc([C@]3(O)CC[C@@](C)(O)CC3)s2)c1 [9(2), cis-1-methyl-4-[5-(3-methyl-5-{[4-(trifluoromethyl)pyrimidin-2-yl]amino}phenyl)-1,3-thiazol-2-yl]cyclohexane-1,4-diol]"
2,< 100 nM,"Cc1cc(Nc2nccc(C(F)(F)F)n2)cc(-c2cnc([C@]3(O)CC[C@@H](C(=O)O)CC3)s2)c1 [33(1)-K, Potassium cis-4-hydroxy-4-[5-(3-methyl-5-{[4-(trifluoromethyl)pyrimidin-2-yl]amino}phenyl)-1,3-thiazol-2-yl]cyclohexanecarboxylate]"
3,< 100 nM,"Cc1cc(Nc2nccc(C(F)(F)F)n2)cc(-c2cnc(C3(O)CCC(C(=O)O)CC3)s2)c1 (stereo not drawn) [33(1)-NA, Sodium cis-4-hydroxy-4-[5-(3-methyl-5-{[4-(trifluoromethyl)pyrimidin-2-yl]amino}phenyl)-1,3-thiazol-2-yl]cyclohexanecarboxylate]"
4,< 100 nM,"Cc1cc(Nc2nccc(C(F)(F)F)n2)cc(-c2cnc([C@]3(O)CC[C@H](C(=O)O)CC3)s2)c1 [33(2)-K, Potassium trans-4-hydroxy-4-[5-(3-methyl-5-{[4-(trifluoromethyl)pyrimidin-2-yl]amino}phenyl)-1,3-thiazol-2-yl]cyclohexanecarboxylate]"
5,< 100 nM,"Cc1cc(Nc2nccc(C(F)(F)F)n2)cc(-c2cnc(C3(O)CCC(C#N)CC3)s2)c1 (stereo not drawn) [37(1), cis-4-hydroxy-4-[5-(3-methyl-5-{[4-(trifluoromethyl)pyrimidin-2-yl]amino}phenyl)-1,3-thiazol-2-yl]cyclohexanecarbonitrile]"
6,< 100 nM,"Cc1cc(Nc2nccc(C(F)(F)F)n2)cc(-c2cnc(C3(O)CCC(C#N)CC3)s2)c1 (stereo not drawn) [37(2), trans-4-hydroxy-4-[5-(3-methyl-5-{[4-(trifluoromethyl)pyrimidin-2-yl]amino}phenyl)-1,3-thiazol-2-yl]cyclohexanecarbonitrile]"
7,< 100 nM,"Cc1cc(Nc2nccc(C(F)(F)F)n2)cc(-c2cnc([C@]3(O)CC[C@H](C(N)=O)CC3)s2)c1 [38(1), trans-4-hydroxy-4-[5-(3-methyl-5-{[4-(trifluoromethyl)pyrimidin-2-yl]amino}phenyl)-1,3-thiazol-2-yl]cyclohexanecarboxamide]"
8,< 100 nM,"Cc1cc(Nc2nccc(C(F)(F)F)n2)cc(-c2cnc(C3(O)CCC(C(N)=O)CC3)s2)c1 (stereo not drawn) [38(2), cis-4-hydroxy-4-[5-(3-methyl-5-{[4-(trifluoromethyl)pyrimidin-2-yl]amino}phenyl)-1,3-thiazol-2-yl]cyclohexanecarboxamide]"
